Values after ≈ are worked out from the molar mass of the structure shown.
How the values were obtained:
Bile acid receptor = biological target: T1, Bile acid receptor (Homo sapiens, UniProt Q96RI1)
T1 sequence (Q96RI1 whole entry): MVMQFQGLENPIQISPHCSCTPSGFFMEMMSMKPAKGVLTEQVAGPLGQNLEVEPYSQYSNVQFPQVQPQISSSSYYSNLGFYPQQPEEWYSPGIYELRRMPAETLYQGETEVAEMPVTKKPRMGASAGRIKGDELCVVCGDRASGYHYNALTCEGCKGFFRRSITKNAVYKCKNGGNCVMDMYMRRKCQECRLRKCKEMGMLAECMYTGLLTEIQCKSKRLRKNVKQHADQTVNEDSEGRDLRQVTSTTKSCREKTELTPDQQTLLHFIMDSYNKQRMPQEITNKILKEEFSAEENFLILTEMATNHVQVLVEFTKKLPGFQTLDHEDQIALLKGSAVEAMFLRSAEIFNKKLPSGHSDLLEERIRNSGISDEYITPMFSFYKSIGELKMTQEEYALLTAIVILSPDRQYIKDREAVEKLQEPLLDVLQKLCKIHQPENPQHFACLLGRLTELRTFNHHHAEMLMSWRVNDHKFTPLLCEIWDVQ
Description: Agonist activity at gal4-tagged human FXR-ligand binding domain expressed in human HEK293 cells by luciferase reporter gene assay

[1] = Aqueous solubility at pH 7.4

Row | Compound | EC50 (Bile acid receptor) [nM] | solubility ([1]; buffer) | solubility ([1]; aqueous) [µg/mL]
1 | CC(C)OC(=O)C1=CN(C(=O)c2cccs2)CC(C)(C)c2cc(C#N)[nH]c21 | 16 | Insoluble(BLD) | 
2 | CC(C)OC(=O)C1=CN(C(=O)C2CCCCC2)CC(C)(C)c2cc(C#N)[nH]c21 |  | Insoluble(BLD) | 
3 | CC(C)OC(=O)C1CN(C(=O)c2ccc(C#N)cc2)CC(C)(C)c2cc(C#N)[nH]c21 (stereo not given) |  |  | 21 (≈ 51.9 µM)
4 | CC(C)OC(=O)C1=CN(C(=O)c2cccc(F)c2)CC(C)(C)c2cc(C#N)[nH]c21 |  | Insoluble(BLD) | 
5 | CC(C)OC(=O)C1=CN(C(=O)c2cccc(C(F)(F)F)c2)CC(C)(C)c2cc(C#N)[nH]c21 | 8.5 | Insoluble(BLD) | 
6 | CC(C)OC(=O)C1CN(C(=O)C2CCCCC2)CC(C)(C)c2cc(C#N)[nH]c21 (stereo not given) |  |  | > 100
7 | CC(C)OC(=O)C1=CN(C(=O)c2cccc(Cl)c2)CC(C)(C)c2cc(C#N)[nH]c21 |  | Insoluble(BLD) | 
8 | CC(C)OC(=O)C1CN(C(=O)c2ccc(F)c(F)c2)CC(C)(C)c2cc(C#N)[nH]c21 (stereo not given) |  |  | 31 (≈ 74.6 µM)
9 | CC(C)OC(=O)C1=CN(C(=O)c2ccc(C#N)cc2)CC(C)(C)c2cc(C#N)[nH]c21 |  | Insoluble(BLD) | 
10 | CC(C)OC(=O)C1=CN(C(=O)c2ccc(F)c(F)c2)CC(C)(C)c2c1[nH]c1ccccc21 [TUROFEXORATE ISOPROPYL] |  | Insoluble(BLD) | 
11 | CC(C)OC(=O)C1CN(C(=O)c2cccc(F)c2)CC(C)(C)c2cc(C#N)[nH]c21 (stereo not given) |  |  | > 100
12 | CC(C)OC(=O)C1CN(C(=O)c2ccc(Cl)cc2)CC(C)(C)c2cc(C#N)[nH]c21 (stereo not given) |  |  | 5 (≈ 12.1 µM)
13 | CC(C)OC(=O)C1CN(C(=O)C2CCOCC2)CC(C)(C)c2cc(C#N)[nH]c21 (stereo not given) |  |  | > 100
14 | CC(C)OC(=O)C1CN(C(=O)c2cccc(Cl)c2)CC(C)(C)c2cc(C#N)[nH]c21 (stereo not given) |  |  | 17 (≈ 41.1 µM)
15 | CC(C)OC(=O)C1=CN(C(=O)c2ccc(F)c(F)c2)CC(C)(C)c2cc(C#N)[nH]c21 | 6.3 | Insoluble(BLD) | 
16 | CC(C)OC(=O)C1CN(C(=O)c2ccc(F)cc2)CC(C)(C)c2cc(C#N)[nH]c21 (stereo not given) |  |  | > 100
17 | CC(C)OC(=O)C1=CN(C(=O)c2ccc(F)cc2)CC(C)(C)c2cc(C#N)[nH]c21 |  | Insoluble(BLD) | 

Source: ChEMBL document CHEMBL1155995, “Pyrrole[2,3-d]azepino compounds as agonists of the farnesoid X receptor (FXR)” (Bioorg Med Chem Lett, 2009)
